# *1 amine or outer side, *2 acyl side, *3 side chain or, on linkers, in order; H or OH if unused. Where a SMILES comes first, the peptide text is derived from it. Side-chain parts run from the residue outwards. γGlu = O=C(O)[C@H](CCC(=O)[*:2])N[*:1]
# Target: T1, glucagon receptor (Homo sapiens, UniProt P47871)
# T1 construct: expressed in transfected cells
# Test: Assay (I) Glucagon activity (cAMP biosensor, FLIPR)
# Format: cell-based
# Settings: HEK-293 cells with cloned glucagon receptor and cAMP biosensor; end point after 6 minutes
# Description: The glucagon receptor was cloned into HEK-293 cells having a membrane bound cAMP biosensor (ACTOne™). The cells (14000 per well) were incubated (37° C., 5% CO2) overnight in 384-well plates. Next day the cells were loaded with a calcium responsive dye that only distributed into the cytoplasm. Probenecid, an inhibitor of the organic anion transporter, was added to prevent the dye from leaving the cell. A PDE inhibitor was added to prevent formatted cAMP from being degraded, The plates were placed into a […] and the glucagon analogues were added. End point data were collected after 6 minutes. An increase in intracellular cAMP was proportional to an increased in calcium concentrations in the cytoplasm. When calcium was bound the dry a fluorescence signal was generated. EC50-values were calculated in Prism5.
# T1 sequence (P47871 26-477): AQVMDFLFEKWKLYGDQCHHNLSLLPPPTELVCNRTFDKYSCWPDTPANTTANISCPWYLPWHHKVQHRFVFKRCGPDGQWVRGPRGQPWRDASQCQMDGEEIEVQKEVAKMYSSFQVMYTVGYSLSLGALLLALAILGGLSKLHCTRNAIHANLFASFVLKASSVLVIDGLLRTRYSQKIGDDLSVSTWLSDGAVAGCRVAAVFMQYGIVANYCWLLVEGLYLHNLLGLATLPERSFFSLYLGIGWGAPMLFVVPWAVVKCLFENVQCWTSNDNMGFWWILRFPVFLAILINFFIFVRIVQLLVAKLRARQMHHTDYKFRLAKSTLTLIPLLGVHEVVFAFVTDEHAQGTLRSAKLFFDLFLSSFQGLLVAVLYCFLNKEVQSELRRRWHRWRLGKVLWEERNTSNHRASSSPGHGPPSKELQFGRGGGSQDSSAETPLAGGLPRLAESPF
row,SMILES,EC50
1,"CC(=O)N[C@@H](CCC(=O)N[C@@H](CCC(=O)N[C@@H](CCC(=O)N[C@@H](CCC(=O)NCCCC[C@H](NC(=O)[C@@H](NC(=O)[C@H](Cc1ccccc1)NC(=O)[C@H](CC(=O)O)NC(=O)[C@H](CCC(N)=O)NC(=O)[C@H](C)NC(=O)[C@H](CCCNC(=N)N)NC(=O)[C@H](CCCNC(=N)N)NC(=O)[C@H](CO)NC(=O)[C@H](CCC(=O)O)NC(=O)[C@H](CC(C)C)NC(=O)[C@H](Cc1ccc(O)cc1)NC(=O)[C@H](CCCCN)NC(=O)[C@H](CO)NC(=O)[C@H](Cc1ccc(O)cc1)NC(=O)[C@H](CC(=O)O)NC(=O)[C@H](CO)NC(=O)[C@@H](NC(=O)[C@H](Cc1ccccc1)NC(=O)[C@@H](NC(=O)CNC(=O)[C@H](CCC(N)=O)NC(=O)[C@H](CO)NC(=O)[C@@H](N)Cc1c[nH]cn1)[C@@H](C)O)[C@@H](C)O)C(C)C)C(=O)N[C@@H](Cc1c[nH]c2ccccc12)C(=O)N[C@@H](CC(C)C)C(=O)N[C@@H](CC(C)C)C(=O)N[C@@H](CO)C(=O)N[C@H](C(=O)O)[C@@H](C)O)C(=O)O)C(=O)O)C(=O)O)C(=O)O [Example 23, N^ε24-[(4S)-4-[[(4S)-4-[[(4S)-4-[[(4S)-4-acetamido-4-carboxybutanoyl]amino]-4-carboxybutanoyl]amino]-4-carboxybutanoyl]amino]-4-carboxybutanoyl]-[Glu15,Lys24,Leu27,Ser28]-Glucagon]",0.0105 nM
2,CC(=O)N[C@@H](CCC(=O)N[C@@H](CCC(=O)N[C@@H](CCC(=O)N[C@@H](CCC(=O)NCCCC[C@H](NC(=O)[C@@H](NC(=O)[C@H](Cc1ccccc1)NC(=O)[C@H](CC(=O)O)NC(=O)[C@H](CCC(N)=O)NC(=O)[C@H](C)NC(=O)[C@H](CCCNC(=N)N)NC(=O)[C@H](CCCNC(=N)N)NC(=O)[C@@H](NC(=O)[C@H](CC(=O)O)NC(=O)[C@H](CC(C)C)NC(=O)[C@H](Cc1ccc(O)cc1)NC(=O)[C@H](CCCNC(=N)N)NC(=O)[C@H](CO)NC(=O)[C@H](Cc1ccc(O)cc1)NC(=O)[C@H](CC(=O)O)NC(=O)[C@H](CO)NC(=O)[C@@H](NC(=O)[C@H](Cc1ccccc1)NC(=O)[C@@H](NC(=O)CNC(=O)[C@H](CCC(N)=O)NC(=O)[C@H](CO)NC(=O)[C@@H](N)Cc1c[nH]cn1)[C@@H](C)O)[C@@H](C)O)[C@@H](C)O)C(C)C)C(=O)N[C@@H](Cc1c[nH]c2ccccc12)C(=O)N[C@@H](CC(C)C)C(=O)N[C@@H](CC(C)C)C(=O)N[C@@H](CO)C(=O)N[C@H](C(=O)N1CCC[C@H]1C(=O)O)[C@@H](C)O)C(=O)O)C(=O)O)C(=O)O)C(=O)O [Example 26] (H-HSQGTFTSDYSRYLDTRRAQDFVK([γGlu-γGlu-γGlu-γGlu-Ac])WLLSTP-OH),0.012 nM
3,"CC(=O)N[C@@H](CCC(=O)N[C@@H](CCC(=O)N[C@@H](CCC(=O)N[C@@H](CCC(=O)NCCCC[C@H](NC(=O)[C@@H](NC(=O)[C@H](Cc1ccccc1)NC(=O)[C@H](CC(=O)O)NC(=O)[C@H](CCC(N)=O)NC(=O)[C@H](C)NC(=O)[C@H](CCCNC(=N)N)NC(=O)[C@H](CCCNC(=N)N)NC(=O)[C@@H](NC(=O)[C@H](CCC(=O)O)NC(=O)[C@H](CC(C)C)NC(=O)[C@H](Cc1ccc(O)cc1)NC(=O)[C@H](CCCCN)NC(=O)[C@H](CO)NC(=O)[C@H](Cc1ccc(O)cc1)NC(=O)[C@H](CC(=O)O)NC(=O)[C@H](CO)NC(=O)[C@@H](NC(=O)[C@H](Cc1ccccc1)NC(=O)[C@@H](NC(=O)CNC(=O)[C@H](Cc1c[nH]cn1)NC(=O)[C@H](CO)NC(=O)[C@@H](N)Cc1c[nH]cn1)[C@@H](C)O)[C@@H](C)O)[C@@H](C)O)C(C)C)C(=O)N[C@@H](Cc1c[nH]c2ccccc12)C(=O)N[C@@H](CC(C)C)C(=O)N[C@@H](CC(C)C)C(=O)N[C@@H](CO)C(=O)N[C@H](C(=O)O)[C@@H](C)O)C(=O)O)C(=O)O)C(=O)O)C(=O)O [Example 31, N^ε24-[(4S)-4-[[(4S)-4-[[(4S)-4-[[(4S)-4-acetamido-4-carboxybutanoyl]amino]-4-carboxybutanoyl]amino]-4-carboxybutanoyl]amino]-4-carboxybutanoyl]-[His3,Glu15,Thr16,Lys24,Leu27,Ser28]-Glucagon] (H-HSHGTFTSDYSKYLETRRAQDFVK([γGlu-γGlu-γGlu-γGlu-Ac])WLLST-OH)",0.013 nM

# Stronger by EC50, values ahead:
row,EC50,SMILES
1,0.0065 nM,CC(=O)N[C@@H](CCC(=O)N[C@@H](CCC(=O)N[C@@H](CCC(=O)N[C@@H](CCC(=O)NCCCC[C@H](NC(=O)[C@@H](NC(=O)[C@H](Cc1ccccc1)NC(=O)[C@H](CC(=O)O)NC(=O)[C@H](CCC(N)=O)NC(=O)[C@H](C)NC(=O)[C@H](CCCNC(=N)N)NC(=O)[C@H](CCCNC(=N)N)NC(=O)[C@@H](NC(=O)[C@H](CC(=O)O)NC(=O)[C@H](CC(C)C)NC(=O)[C@H](Cc1ccc(O)cc1)NC(=O)[C@H](CCCCN)NC(=O)[C@H](CO)NC(=O)[C@H](Cc1ccc(O)cc1)NC(=O)[C@H](CC(=O)O)NC(=O)[C@H](CO)NC(=O)[C@@H](NC(=O)[C@H](Cc1ccccc1)NC(=O)[C@@H](NC(=O)CNC(=O)[C@H](CCC(N)=O)NC(=O)[C@H](CO)NC(=O)[C@@H](N)Cc1c[nH]cn1)[C@@H](C)O)[C@@H](C)O)[C@@H](C)O)C(C)C)C(=O)N[C@@H](Cc1c[nH]c2ccccc12)C(=O)N[C@@H](CC(C)C)C(=O)N[C@@H](CC(C)C)C(=O)N[C@@H](CO)C(=O)N[C@H](C(=O)O)[C@@H](C)O)C(=O)O)C(=O)O)C(=O)O)C(=O)O [Example 30]
2,0.009 nM,"CC(=O)N[C@@H](CCC(=O)N[C@@H](CCC(=O)N[C@@H](CCC(=O)N[C@@H](CCC(=O)NCCCC[C@H](NC(=O)[C@@H](NC(=O)[C@H](Cc1ccccc1)NC(=O)[C@H](CC(=O)O)NC(=O)[C@H](CCC(N)=O)NC(=O)[C@H](C)NC(=O)[C@H](CCCNC(=N)N)NC(=O)[C@H](CCCNC(=N)N)NC(=O)[C@@H](NC(=O)[C@H](CC(=O)O)NC(=O)[C@H](CC(C)C)NC(=O)[C@H](Cc1ccc(O)cc1)NC(=O)[C@H](CCCCN)NC(=O)[C@H](CO)NC(=O)[C@H](Cc1ccc(O)cc1)NC(=O)[C@H](CC(=O)O)NC(=O)[C@H](CO)NC(=O)[C@@H](NC(=O)[C@H](Cc1ccccc1)NC(=O)[C@@H](NC(=O)CNC(=O)[C@H](Cc1c[nH]cn1)NC(=O)[C@H](CO)NC(=O)[C@@H](N)Cc1c[nH]cn1)[C@@H](C)O)[C@@H](C)O)[C@@H](C)O)C(C)C)C(=O)N[C@@H](Cc1c[nH]c2ccccc12)C(=O)N[C@@H](CC(C)C)C(=O)N[C@@H](CC(C)C)C(=O)N[C@@H](CO)C(=O)N[C@H](C(=O)O)[C@@H](C)O)C(=O)O)C(=O)O)C(=O)O)C(=O)O [Example 32, N^ε24-[(4S)-4-[[(4S)-4-[[(4S)-4-[[(4S)-4-acetamido-4-carboxybutanoyl]amino]-4-carboxybutanoyl]amino]-4-carboxybutanoyl]amino]-4-carboxybutanoyl]-[His3,Thr16,Lys24,Leu27,Ser28]-Glucagon] (H-HSHGTFTSDYSKYLDTRRAQDFVK([γGlu-γGlu-γGlu-γGlu-Ac])WLLST-OH)"

# From US20140031278A1, “Novel Glucagon Analogues” (NOVO NORDISK A/S, priority 2011, published 2014)
